{
  "source": "patent US10821091B2",
  "about": "“Retinoid compositions and methods of increasing immune cell-mediated killing of IDH mutant cancer cells” (UNIVERSITY OF PITTSBURGH—OF THE COMMONWEALTH SYSTEM OF …, priority 2017, dated 2020)",
  "key": {"IDH mutant tumors": {"test_system": "IDH mutant tumors", "experiment": "NK depletion (anti-NK1.1) experiment in tumor-bearing C57BL6/J nude mice", "assay_type": "in vivo", "experimental": "Mice. […] DMSO-treated mice were used as controls.\nAnti-tumor effects of ATRA in vivo is dependent upon NK activity in vivo. Contrary to the delayed pro-differentiation effect of ATRA in vitro (FIG. 13A through 13D), the anti-tumor effects in vivo were more immediate. Thus, it was hypothesized that ATRA exercises alternate pathways to curb tumor growth. […] To further substantiate the role of NKs in anti-tumor effect of ATRA, a NK blocking experiment was performed in vivo. Briefly, IDH mutant or WT tumor-bearing C57BL6/J nude mice were injected with […] anti-NK1.1 (or control isotype) antibody intra-peritoneally on the first day of ATRA treatment. ATRA treatment was started when tumors were about 25 mm^2 in size and administered every other day."}, "[1]": {"test_system": "IDH mutant primary glioma neurospheres", "experiment": "Differentiation of primary glioma neurospheres", "assay_type": "cell-based, human", "settings": "for morphological changes: 1 μM ATRA", "experimental": "Glioma cell culture. Resected tumors from Glioma patients (both IDH wt and mutant) were mechanically dissociated to form a single cell suspension. Contaminating RBCs were removed using an RBC lysis buffer (eBioscience) and cells were propagated into neural stem cells in Neurocult™ NS-A proliferation kit supplemented with 20 ng/mL Human Recombinant EGF, 10 ng/mL Human Recombinant bFGF) and 2 μg/mL Heparin Solution (Stemcell Technologies Canada Inc.). After 3 weeks in culture, neurospheres were moved to Complete Medium (CM) in order to propagate differentiation into adherent cell lines.\nAll-trans retinoic acid (ATRA) is a differentiating agent for multiple types of cancers, including IDH mutant acute myeloid leukemia (AML). Therefore, efficacy of ATRA as a differentiating agent in IDH mutant gliomas was evaluated. IDH mutant or WT primary glioma neurospheres were treated with 1 μM ATRA for 2, 7 or 14 days. At each time point, cells were evaluated for morphological changes and changes in their molecular profile. Vehicle (DMSO)-treated cells served as controls, while cells treated with 10% FBS served as differentiation (positive) controls."}, "[2]": {"test_system": "CCL2 and CXCL12 in IDH mutant cells", "experiment": "Chemokine array on culture supernatants", "assay_type": "cell-based, human", "experimental": "(§1) ATRA increases chemotaxis towards IDH mutant cells in a CCL2-dependent manner. […] To confirm these findings, chemotaxis assays were performed in vitro. ATRA-treated IDH mutant or WT cells were plated in the bottom well of a transwell. Different immune cell subsets (as indicated) were placed in the top chamber at a 10:1 E:T ratio. After 48 hours, cells from the bottom chamber were harvested and analyzed by flow cytometry. […] To evaluate the mechanisms of changes in chemotaxis induced by ATRA, a chemokine array was performed. Supernatants from ATRA- (or DMSO)-treated WT and IDH mutant cultures were used to assess changes in chemokine expression using a chemokine array kit (R&D systems). Results were interpreted visually as well as quantified using an imaging software (ImageJ). […] To substantiate the role of CCL2 in NK and T cell chemotaxis, transwell assays were repeated as described earlier, in the presence of CCL2-blocking antibody (R&D systems)."}, "IDH mutant cells": {"test_system": "IDH mutant cells", "experiment": "NK cytotoxicity assay (CFSE/7-AAD flow cytometry) on ATRA-treated glioma cells", "assay_type": "cell-based, human", "experimental": "All-trans Retinoic acid (ATRA) treatment of astrocytes and primary glioma cells. ATRA was purchased from Sigma Aldrich® and reconstituted in DMSO. ATRA was added at a 1 μM final concentration to cell culture medium for 48 hours. After treatment, the cells either lysed in Trizol™ for qPCR analysis, or were used in NK cytotoxicity assays.\nNK-92 cell culture. For some experiments, NK92 cells were used instead of donor NK cells. NK92 cells (ATCC® CRL-2407™) were obtained from ATCC. […] Fresh medium was added every 2-3 days and once a week, the cells were counted and re-suspended at a final concentration of 5×10^5 cells/mL in fresh medium.\nNK cytotoxicity assay. […] After 6 h incubation, the cells were stained with 0.25 μg/ml of 7-AAD and analyzed by flow cytometry.\nATRA induced increased cytotoxic killing of IDH mutant cells in an NKG2D-ligand dependent manner. The ability of ATRA to sensitize IDH mutant cells to killing by NK cells was evaluated. For this purpose, IDH mutant and WT cells were treated with 1 μM ATRA for 48 hours and assessed for killing by NK-92 cells (ATCC) at a 10:1 E:T ratio. […] ATRA-treated cells were also evaluated for expression of NKG2D ligands."}, "[3]": {"test_system": "ATRA-treated IDH mutant cells", "experiment": "Transwell chemotaxis assay of immune cell subsets", "assay_type": "cell-based, human", "experimental": "as §1"}, "[4]": {"settings": "towards ATRA-treated IDH mutant cells vs DMSO-treated controls, 48 hours"}, "[5]": {"settings": "towards ATRA-treated IDH mutant cells, 48 hours"}},
  "data": [
    {"smiles": "CC1=C(/C=C/C(C)=C/C=C/C(C)=C/C(=O)O)C(C)(C)CCC1", "note": "[ATRA, all-trans retinoic acid]", "values": [
      {"measurement": "levels of NKs in TILs by flow cytometry", "setting": "IDH mutant tumors; ATRA-treated mice vs DMSO-treated controls", "value": "higher levels of NKs"},
      {"measurement": "tumor growth", "setting": "IDH mutant tumors; IDH mutant tumor-bearing C57BL6/J nude mice, ATRA every other day, vs DMSO-treated controls", "value": "significantly slower tumor growth"},
      {"measurement": "tumor growth after depletion of NKs (anti-NK1.1)", "setting": "IDH mutant tumors; IDH mutant tumor-bearing mice treated with ATRA", "value": "depletion of NKs abrogated the anti-tumor effects of ATRA"},
      {"measurement": "morphological changes", "setting": "[1]; 14 days", "value": "induced morphological changes in IDH mutant primary glioma neurospheres, but not WT neurospeheres"},
      {"measurement": "morphological changes", "setting": "[1]; earlier time points", "value": "Minimal morphological changes"},
      {"measurement": "time of ATRA treatment after which differentiation occurred", "setting": "[1]; IDH mutant glioma stem cells", "value": "> 10", "unit": "days"},
      {"measurement": "levels of stem cell markers Sox2, CD133 and Nestin", "setting": "[1]; IDH mutant neurospheres, ATRA 14 days, PCR (Nestin also flow cytometry)", "value": "significantly lower levels"},
      {"measurement": "levels of GFAP, astrocytic differentiation marker", "setting": "[1]; IDH mutant neurospheres, ATRA 14 days, PCR and flow cytometry", "value": "increased levels of GFAP"},
      {"measurement": "levels of CXCL12", "setting": "[2]; ATRA-treated IDH mutant cells vs DMSO-treated controls", "value": "lower levels of CXCL12"},
      {"measurement": "CCL2 production", "setting": "[2]; supernatants of ATRA- or DMSO-treated WT and IDH mutant cultures", "value": "CCL2 production was only observed in ATRA treated IDH mutant cells"},
      {"measurement": "killing by NK cells incubated with NKG2D blocking antibody", "setting": "IDH mutant cells; ATRA-treated IDH mutant cells", "value": "failed to recognize and kill ATRA-treated IDH mutant cells, reducing killing to baseline levels"},
      {"measurement": "killing by NK-92 cells", "setting": "IDH mutant cells; IDH mutant cells, 1 μM ATRA 48 hours, 10:1 E:T ratio, vs DMSO-treated controls", "value": "significantly more susceptible to killing by NK-92 cells"},
      {"measurement": "NK and T cell migration in the presence of CCL2-blocking antibody", "setting": "[3]; ATRA-treated IDH mutant cells", "value": "reversed the increased NK (FIG. 6M) and T cell (FIG. 6N) migration"},
      {"measurement": "migration of Tregs in the presence of CCL2-blocking antibody", "setting": "[3]; ATRA-treated IDH mutant cells", "value": "did not impact the migration of Tregs"},
      {"measurement": "migration of CD8+ T cells", "setting": "[3]; [4]", "value": "increased migration"},
      {"measurement": "migration of M1 macrophages", "setting": "[3]; [4]", "value": "increased migration"},
      {"measurement": "migration of NK cells", "setting": "[3]; [4]", "value": "increased migration"},
      {"measurement": "migration of M2 macrophages", "setting": "[3]; [5]", "value": "decreased migration"},
      {"measurement": "migration of Monocytes", "setting": "[3]; [5]", "value": "decreased migration"},
      {"measurement": "migration of Tregs", "setting": "[3]; [5]", "value": "decreased migration"}
    ]}
  ]
}
